# Like-named read-outs stand apart in the source and are kept apart here.
# Experiments:
# Assay in all cases: HotSpot kinase profiling
# Assay type in all cases: biochemical
# [1] = target: T1, CDK1/cyclin E (Homo sapiens, UniProt P06493)
# T1 construct: purchased Reaction Biology Corp
# In short: (§1)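 Percent inhibition, averaged when run more than once and referenced to a DMSO negative control, came from a radioactive filter-binding readout on P81 paper. Reactions of kinase with freshly made substrate and cofactors ran for 2 h at room temperature.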
# [2] = target: T2, EPHB3 (Homo sapiens, UniProt P54753)
# T2 construct: purchased Reaction Biology Corp
# T2 sequence (P54753 34-998): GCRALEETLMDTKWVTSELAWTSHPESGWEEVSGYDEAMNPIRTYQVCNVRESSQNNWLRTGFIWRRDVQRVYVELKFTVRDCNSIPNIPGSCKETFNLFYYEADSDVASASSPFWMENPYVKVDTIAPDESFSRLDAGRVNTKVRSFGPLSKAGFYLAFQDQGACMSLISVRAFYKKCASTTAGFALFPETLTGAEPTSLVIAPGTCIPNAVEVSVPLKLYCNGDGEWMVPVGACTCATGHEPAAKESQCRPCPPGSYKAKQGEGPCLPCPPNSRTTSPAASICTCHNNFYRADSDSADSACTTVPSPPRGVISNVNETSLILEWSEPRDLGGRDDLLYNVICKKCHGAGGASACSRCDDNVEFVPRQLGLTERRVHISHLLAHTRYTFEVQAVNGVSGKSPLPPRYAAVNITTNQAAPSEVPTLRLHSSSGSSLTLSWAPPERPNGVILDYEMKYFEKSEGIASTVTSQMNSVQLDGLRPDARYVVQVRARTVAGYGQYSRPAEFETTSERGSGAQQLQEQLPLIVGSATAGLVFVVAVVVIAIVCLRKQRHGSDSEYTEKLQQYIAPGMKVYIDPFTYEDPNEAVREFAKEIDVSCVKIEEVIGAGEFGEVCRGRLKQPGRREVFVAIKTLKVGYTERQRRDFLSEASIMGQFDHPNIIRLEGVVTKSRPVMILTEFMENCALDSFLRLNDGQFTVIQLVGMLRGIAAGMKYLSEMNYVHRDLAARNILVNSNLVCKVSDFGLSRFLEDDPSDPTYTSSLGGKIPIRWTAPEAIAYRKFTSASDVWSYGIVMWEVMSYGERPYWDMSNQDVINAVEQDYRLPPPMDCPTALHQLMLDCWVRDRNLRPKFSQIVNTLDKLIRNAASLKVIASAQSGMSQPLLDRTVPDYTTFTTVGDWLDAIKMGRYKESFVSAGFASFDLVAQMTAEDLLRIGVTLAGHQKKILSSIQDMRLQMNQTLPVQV
# In short: as §1
# [3] = target: T3, ERK2/MAPK1 (Homo sapiens, UniProt P28482)
# T3 construct: purchased Reaction Biology Corp
# T3 sequence (P28482 whole entry): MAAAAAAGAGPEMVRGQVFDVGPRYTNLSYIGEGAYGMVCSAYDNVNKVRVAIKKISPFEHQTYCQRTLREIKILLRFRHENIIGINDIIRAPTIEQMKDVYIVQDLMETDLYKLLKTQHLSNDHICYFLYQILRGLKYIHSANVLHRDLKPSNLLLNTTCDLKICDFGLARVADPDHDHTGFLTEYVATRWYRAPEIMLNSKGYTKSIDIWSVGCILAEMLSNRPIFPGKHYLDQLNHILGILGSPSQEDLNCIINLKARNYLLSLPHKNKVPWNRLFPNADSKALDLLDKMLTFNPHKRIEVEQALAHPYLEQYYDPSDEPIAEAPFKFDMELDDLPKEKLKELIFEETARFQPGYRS
# In short: as §1
# [4] = target: T4, MEKK2 (Homo sapiens, UniProt Q9Y2U5)
# T4 construct: purchased Reaction Biology Corp
# T4 sequence (Q9Y2U5 1-619): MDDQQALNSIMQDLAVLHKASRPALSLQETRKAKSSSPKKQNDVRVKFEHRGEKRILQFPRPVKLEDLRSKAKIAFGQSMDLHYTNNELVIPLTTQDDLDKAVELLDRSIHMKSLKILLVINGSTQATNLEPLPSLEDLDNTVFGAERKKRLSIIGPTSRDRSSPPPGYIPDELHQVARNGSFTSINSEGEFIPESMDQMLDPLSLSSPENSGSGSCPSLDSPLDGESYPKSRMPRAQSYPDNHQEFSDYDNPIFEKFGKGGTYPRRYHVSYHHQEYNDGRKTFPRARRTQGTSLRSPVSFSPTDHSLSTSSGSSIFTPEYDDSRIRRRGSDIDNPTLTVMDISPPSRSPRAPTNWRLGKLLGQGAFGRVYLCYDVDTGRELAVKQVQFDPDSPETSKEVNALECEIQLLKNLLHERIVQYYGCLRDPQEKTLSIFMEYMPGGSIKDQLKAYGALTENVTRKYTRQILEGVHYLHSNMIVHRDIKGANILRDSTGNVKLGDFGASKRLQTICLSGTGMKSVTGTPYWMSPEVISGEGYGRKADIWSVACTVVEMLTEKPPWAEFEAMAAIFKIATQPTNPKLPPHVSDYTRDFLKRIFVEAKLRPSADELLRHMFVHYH
# In short: as §1
# [5] = target: T5, NEK3 (Homo sapiens, UniProt P51956)
# T5 construct: purchased Reaction Biology Corp
# T5 sequence (P51956 1-506): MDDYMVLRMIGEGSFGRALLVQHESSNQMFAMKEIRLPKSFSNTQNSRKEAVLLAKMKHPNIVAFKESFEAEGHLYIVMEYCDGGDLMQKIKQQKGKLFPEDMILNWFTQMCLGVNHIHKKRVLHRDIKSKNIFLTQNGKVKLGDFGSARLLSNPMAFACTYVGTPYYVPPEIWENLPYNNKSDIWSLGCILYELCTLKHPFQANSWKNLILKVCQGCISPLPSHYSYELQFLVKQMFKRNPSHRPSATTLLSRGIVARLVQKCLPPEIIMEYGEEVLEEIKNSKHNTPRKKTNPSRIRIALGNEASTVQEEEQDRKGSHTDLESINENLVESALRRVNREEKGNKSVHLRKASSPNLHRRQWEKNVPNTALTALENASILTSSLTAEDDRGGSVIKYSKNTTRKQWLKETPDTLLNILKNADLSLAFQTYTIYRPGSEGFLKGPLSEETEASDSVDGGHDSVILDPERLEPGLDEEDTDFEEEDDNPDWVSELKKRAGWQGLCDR
# In short: as §1
# [6] = target: T6, PKCeta (Homo sapiens, UniProt P24723)
# T6 construct: purchased Reaction Biology Corp
# T6 sequence (P24723 whole entry): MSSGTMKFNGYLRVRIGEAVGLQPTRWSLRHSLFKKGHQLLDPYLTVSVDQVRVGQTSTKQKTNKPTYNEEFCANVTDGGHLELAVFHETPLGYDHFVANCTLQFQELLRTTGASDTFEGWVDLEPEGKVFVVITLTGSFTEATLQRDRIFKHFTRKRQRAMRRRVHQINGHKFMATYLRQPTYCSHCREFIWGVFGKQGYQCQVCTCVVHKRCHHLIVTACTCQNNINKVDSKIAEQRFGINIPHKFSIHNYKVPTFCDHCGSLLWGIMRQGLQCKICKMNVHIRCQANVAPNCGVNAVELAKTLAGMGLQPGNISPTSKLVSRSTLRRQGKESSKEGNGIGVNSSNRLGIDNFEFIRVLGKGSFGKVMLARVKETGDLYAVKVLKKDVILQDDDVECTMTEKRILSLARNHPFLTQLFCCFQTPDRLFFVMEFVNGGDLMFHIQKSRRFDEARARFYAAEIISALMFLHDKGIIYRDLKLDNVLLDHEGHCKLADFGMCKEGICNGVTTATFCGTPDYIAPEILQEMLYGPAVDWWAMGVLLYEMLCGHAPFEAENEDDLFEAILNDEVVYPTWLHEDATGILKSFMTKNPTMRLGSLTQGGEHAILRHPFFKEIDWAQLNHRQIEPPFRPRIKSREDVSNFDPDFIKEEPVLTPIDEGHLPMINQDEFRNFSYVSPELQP
# In short: as §1
# [7] = read-out: % Enzyme Activity (relative to DMSO controls) Run 1
# [8] = read-out: % Enzyme Activity (relative to DMSO controls) Run 2
# T1 sequence (P06493 whole entry): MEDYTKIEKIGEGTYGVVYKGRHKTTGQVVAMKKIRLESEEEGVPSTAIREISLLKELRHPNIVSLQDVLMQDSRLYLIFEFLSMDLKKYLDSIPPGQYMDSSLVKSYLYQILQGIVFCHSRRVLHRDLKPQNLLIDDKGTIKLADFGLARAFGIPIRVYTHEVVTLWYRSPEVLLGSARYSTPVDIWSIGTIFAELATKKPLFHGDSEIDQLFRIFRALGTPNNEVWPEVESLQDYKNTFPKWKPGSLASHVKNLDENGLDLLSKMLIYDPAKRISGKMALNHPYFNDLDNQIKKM
# T1 sequence (P24864 whole entry partner): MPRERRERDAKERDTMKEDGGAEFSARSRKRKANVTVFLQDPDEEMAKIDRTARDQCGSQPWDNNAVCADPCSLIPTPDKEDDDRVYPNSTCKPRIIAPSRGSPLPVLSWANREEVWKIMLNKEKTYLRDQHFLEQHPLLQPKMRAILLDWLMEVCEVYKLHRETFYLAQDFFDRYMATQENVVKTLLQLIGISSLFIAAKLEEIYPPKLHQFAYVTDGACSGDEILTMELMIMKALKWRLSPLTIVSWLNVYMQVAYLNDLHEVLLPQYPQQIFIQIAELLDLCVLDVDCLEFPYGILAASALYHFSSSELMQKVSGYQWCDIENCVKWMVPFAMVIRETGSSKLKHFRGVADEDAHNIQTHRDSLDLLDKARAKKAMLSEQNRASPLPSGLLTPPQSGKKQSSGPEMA
compound,measurement,setting,value
C=CC(=O)Nc1cccc(Nc2nc(Nc3ccc(OCCOC)c(F)c3)ncc2F)c1 [Compound 2],inhibition at 3 µM,[1],-1.3%
same,remaining activity at 3 µM,[1]; [7],100%
same,remaining activity at 3 µM,[1]; [8],102%
same,inhibition at 3 µM,[2],1.31%
same,remaining activity at 3 µM,[2]; [7],99.2%
same,remaining activity at 3 µM,[2]; [8],98.2%
same,inhibition at 3 µM,[3],-4.25%
same,remaining activity at 3 µM,[3]; [7],106%
same,remaining activity at 3 µM,[3]; [8],103%
same,inhibition at 3 µM,[4],-10.9%
same,remaining activity at 3 µM,[4]; [7],108%
same,remaining activity at 3 µM,[4]; [8],114%
same,inhibition at 3 µM,[5],24.1%
same,remaining activity at 3 µM,[5]; [7],76.7%
same,remaining activity at 3 µM,[5]; [8],75.1%
same,inhibition at 3 µM,[6],-12.8%
same,remaining activity at 3 µM,[6]; [7],109%
same,remaining activity at 3 µM,[6]; [8],117%

# Source: US9492471B2, “Methods of treating a disease or disorder associated with Bruton'S Tyrosine Kinase” (Celgene Avilomics Research, Inc., priority 2013, dated 2016)
